Publication PMC6202177 (Nature chemical biology, 2018)

What was measured:
[1] = target: peptide-deficient H2-D^d/hβ2m/TAPBPR complex (murine | human | not stated); assay: fluorescence polarisation
[2] = target: peptide-deficient H2-D^d/hβ2m/TAPBPR (Mus musculus, UniProt P01900); assay: Fluorescence anisotropy competition with TAMRA-P18-I10; type: binding, murine H2-D^d, human β2m; conditions: negative control peptide, in words
[3] = target: H2-D^d/TAPBPR (MHC-I/TAPBPR) (Mus musculus, UniProt P01900); assay: Thermodynamic cycle step 4: peptide binding to MHC-I/TAPBPR; set-up: species or system murine H2-D^d, human β2m; conditions: Fig. 6 mechanism, in words
[4] = target: biotinylated TAPBPR (UniProt Q9BX59); assay: SPR
[5] = system: P18-I10/H2-D^d/hβ2m; assay: NMR titration and line shape analysis of TAPBPR onto P18-I10/H2-D^d/hβ2m; type: binding, murine H2-D^d, human β2m; conditions: slow exchange on the chemical shift timescale, in words
[6] = system: peptide-deficient H2-D^d; assay: SEC binding of TAPBPR; set-up: species or system murine H2-D^d; conditions: in words
[7] = system: RGPGC/H2-D^d S73C; assay: SEC binding of TAPBPR; set-up: species or system murine H2-D^d; conditions: partially loaded RGPGC/H2-D^d S73C, in words
[8] = system: P18-I10/H2-D^d; assay: SEC binding of TAPBPR; set-up: species or system murine H2-D^d; conditions: fully-loaded P18-I10/H2-D^d, in words
[9] = system: […]/HLA-B*15:01/hβ2m; assay: SEC binding of TAPBPR; set-up: species or system human
[10] = system: […]/HLA-B*27:02/hβ2m; assay: SEC binding of TAPBPR; set-up: species or system human
[11] = system: […]/HLA-A*01:01/hβ2m; assay: NMR binding of TAPBPR; set-up: species or system human
[12] = target: peptide-deficient H2-D^d/hβ2m/TAPBPR complex (murine | human | not stated); assay: NMR titration
[13] = target: P18-I10/H2-D^d/hβ2m (murine | human | HIV); assay: NMR titration

## P18-I10 peptide
[1]
  K2′: 0.186 µM
  Kd: 0.09 µM

## FVTI
[2]
  stability and exchange in the DSF and FA assays: minimal stability and exchange
[3]
  affinity class of peptide: low-affinity

## H2-D^(d S73C)/β2m (complex)
[4]
  koff: < 0.002 s⁻¹

## TAPBPR: molecular chaperone, TAP-binding protein related; luminal domain expressed in Drosophila S2 cells
[5]
  TAPBPR binding to pMHC-I by NMR: tight complex
[6]
  TAPBPR binding (SEC): high-affinity complex
[7]
  TAPBPR binding (SEC): high-affinity complex
[8]
  TAPBPR binding (SEC): high-affinity complex
[9]; 80 μM pMHC-I, 160 μM TAPBPR, room temperature 1 hour, HLA-B*15:01
  TAPBPR binding (SEC): No TAPBPR binding could be detected
[9]; HLA-B*15:01, inferred from lack of detectable binding (≫)
  koff implied if an interaction exists: > 3 s⁻¹
[10]; 80 μM pMHC-I, 160 μM TAPBPR, room temperature 1 hour, HLA-B*27:02
  TAPBPR binding (SEC): No TAPBPR binding could be detected
[10]; HLA-B*27:02, inferred from lack of detectable binding (≫)
  koff implied if an interaction exists: > 3 s⁻¹
[11]; 200 µM pMHC-I, two-fold molar excess TAPBPR, HLA-A*01:01
  TAPBPR binding (NMR): No TAPBPR binding could be detected
[11]; HLA-A*01:01, inferred from lack of detectable binding (≫)
  koff implied if an interaction exists: > 3 s⁻¹

## ^13C labeled P18-I10 (peptide)
[12]
  Kd: < 7.2 µM
  koff: < 80 s⁻¹

B1: TAPBPR (TAP-binding protein related), luminal domain (domain or fragment)
chain: KPHPAEGQWRAVDVVLDCFLAKDGAHRGALASSEDRARASLVLKQVPVLDDGSLEDFTDFQGGTLAQDDPPIIFEASVDLVQIPQAEALLHADCSGKEVTCEISRYFLQMTETTVKTAAWFMANMQVSGGGPSISLVMKTPRVTKNEALWHPTLNLPLSPQGTVRTAVEFQVMTQTQSLSFLLGSSASLDCGFSMAPGLDLISVEWRLQHKGRGQLVYSWTAGQGQAVRKGATLEPAQLGMARDASLTLPGLTIQDEGTYICQITTSLYRAQQIIQLNIQASPKVRLSLANEALLPTLICDIAGYYPLDVVVTWTREELGGSPAQVSGASFSSLRQSVAGTYSISSSLTAEPGSAGATYTCQVTHISLEEPLGASTQVVPPERR
[13]
  Kd: 32 µM
